# Laboratory results as given in PMC12040169 (PLOS Biology, 2025).
# Test: in vitro
# Settings: human, hela cells, % viability
row,Compound,"viability at 28.5 h, 10 µM"
1,Cc1nc(C2CC(O)C2)cc(N(C)CCOc2cccc(Cl)c2)n1 (stereo not drawn) [CBK307691],94.6%
2,COc1ccc(OCCN2CCC(C(=O)c3ccc(F)cc3)CC2)cc1 [CBK149136],104%
3,O=C(O)C(Cc1ccccc1)N1C(=O)/C(=C/c2ccc([N+](=O)[O-])cc2)SC1=S (stereo not drawn) [CBK263108],84.3%
4,COC(=O)c1cn([C@H]2CO[C@H]3[C@@H]2OC[C@@H]3NC(=O)C2CC2)nn1 [CBK289497],86%
5,Cn1cc(C(=O)CCC(=O)NC2CCCN(c3ncccn3)C2)cn1 (stereo not drawn) [CBK305480],94.1%
6,Cc1cc(C)cc(NC(=O)C2C3C=CC(O3)C2C(=O)O)c1 (stereo not drawn) [CBK262642],95.3%
7,OCc1cccc(-c2cncc(N3CCN(CCN4CCCC4)CC3)n2)c1 [CBK066136],99.8%
8,Nc1nc(NCCOc2ccccc2Cl)cc(C2CC(N)C2)n1 (stereo not drawn) [CBK306825],75.2%
9,CCOc1ccc(C(=O)CCNCC(=O)O)cc1 [CBK286657],94.4%
10,C[C@@H]1CN2CCCC2CN1Cc1ccc2ncccc2c1 (stereo partly drawn) [CBK284555],99.3%
11,COc1ccc(S(=O)(=O)N(C)CC(=O)N2CCOCC2)cc1C [CBK267898],95.8%
12,O=C(c1ccc2[nH]c(=O)[nH]c2c1)N1CCCC2(CCN(C(=O)c3cc(F)c(F)cc3F)C2)C1 (stereo not drawn) [CBK131566],106%
13,CCOc1ccc(-c2cncc(Nc3ccc4c(c3)OC(F)(F)C(F)(F)O4)n2)cc1 [CBK065728],96.8%
14,CC(C)c1nccn1CCC(=O)N1CCC(c2ccncc2)CC1 [CBK283512],105%
15,CCN(CC)CCCNC(=O)N1CCCC(CO)C1 (stereo not drawn) [CBK156061],103%
16,CC(Cn1cncn1)C(=O)N1CCc2sccc2C1C (stereo not drawn) [CBK282080],106%
17,O=C(NCCOc1ccccc1)N1CCN(Cc2ccccc2)CC1 [CBK155652],93.3%
18,Cc1nc(S(=O)(=O)Cc2c(F)cccc2Cl)n(CC2CCCO2)c1C (stereo not drawn) [CBK304706],87.9%

row,Compound,"viability at 28.5 h, 10 µM"
1,COc1cccc(OC)c1OCCCN1CCCCC1 [CBK262719],97.7%
2,OC1(c2cccnc2F)CCN(Cc2cc(F)ccc2F)CC1 [CBK284371],83.6%
3,CC(C)(C)SCCNC(=S)NCCO [CBK020686],98.7%
4,Nc1ncc(-c2ccoc2)nc1Nc1ccc2[nH]ccc2c1 [CBK063868],80.5%
5,CN1CCN(S(=O)(=O)c2ccc(Oc3ccccc3)cc2)CC1 [CBK062430],113%
6,Cc1cc(C)c(Oc2nc(=O)n([C@H]3C[C@@H](O)[C@@H](CO)O3)cc2F)c(C)c1 [CBK201184],96.4%
7,O=C1C=CC2=C3Oc4c(ccc5cc(O)ccc45)C(c4ccccc4C(=O)O)C3C=CC2=C1 (stereo not drawn) [CBK278169N],82.8%
8,O=C(O)CCNS(=O)(=O)c1ccc(Br)cc1 [CBK261941],90.6%
9,CC(=O)Nc1ccc(-c2ccc(=O)n3c2[C@@H]2C[C@@H](CN(C4CCOCC4)C2)C3)cc1 [CBK289201],98%
10,Cc1nc2c(c(=O)[nH]1)CN(C1CCCCC1)CC2 [CBK282416],82.2%
11,O=C(O)CN1C(=O)C(=O)/C(=C(O)\C=C\c2ccccc2)C1c1ccccc1 (stereo not drawn) [CBK286551],86.8%
12,O=C(N[C@H]1COC(=O)N1)OCc1ccccc1 [CBK007606],114%
13,C[C@H](Cn1nc2c(cc1=O)CCCCC2)NC(=O)Cc1cccs1 [CBK284548],100%
14,O=C(CSc1nnc(-c2ccc(Cl)cc2Cl)[nH]1)Nc1ccc(F)cc1 [CBK267651],96.4%
15,CCN(CC(=O)NCc1ccc(F)cc1)C(=O)c1ccc(C#N)cc1 [CBK305841],100%
16,Cc1sc2ncnc(N3CCCC3Cn3cccn3)c2c1C (stereo not drawn) [CBK304570],90.9%
17,CCNS(=O)(=O)c1ccc(NC(=O)c2nc3nc(C)cc(C(F)F)n3n2)cc1 [CBK266146],104%
18,Nc1nc2c(nc(OCc3ccccc3)n2C2OC(CO)C(O)C2O)c(=O)[nH]1 (stereo not drawn) [CBK201247],80.6%
